Experiment: xn = mol fraction of the nth substance listed

CS(C)=O + CC#N
viscosity [mPa·s], 101 kPa
Settings	298 K	298.15 K	303.15 K	308 K	308.15 K	313.15 K	318 K	318.15 K
x1 = 0.2	0.5206	0.477	–	–	–	–	0.3814	–
x1 = 0.4	0.8409	0.687	–	0.6302	–	–	0.4513	–
x1 = 0.6	1.16	0.987	–	0.8402	–	–	–	–
x1 = 0.8	1.42	1.42	–	1.161	–	–	0.8203	–
x2 = 0.0249	–	1.911	1.762	–	1.61	1.484	–	1.348
x2 = 0.0518	–	1.824	1.684	–	1.544	1.425	–	1.295
x2 = 0.0759	–	1.75	1.617	–	1.485	1.371	–	1.247
x2 = 0.1079	–	1.658	1.531	–	1.405	1.298	–	1.18
x2 = 0.157	–	1.527	1.406	–	–	–	–	1.082
x2 = 0.1998	–	1.422	1.306	–	1.194	1.098	–	1
x2 = 0.2609	–	1.281	–	–	1.066	0.9759	–	0.8875
x2 = 0.3034	–	1.188	1.085	–	0.9838	0.898	–	0.8161
x2 = 0.3548	–	1.082	0.9867	–	0.8905	0.8098	–	0.7348
x2 = 0.411	–	0.9742	0.8848	–	0.7978	0.7219	–	0.6547
x2 = 0.4696	–	0.8699	0.7875	–	0.7092	0.6398	–	0.5794
x2 = 0.5084	–	0.8053	0.7285	–	0.6554	0.591	–	0.5348
x2 = 0.5566	–	0.7292	0.6595	–	0.5949	0.5366	–	0.4864
x2 = 0.6053	–	0.6586	0.5945	–	0.5379	0.4862	–	0.4403
x2 = 0.6666	–	0.5821	0.5266	–	0.4786	0.435	–	0.3971
x2 = 0.7114	–	0.5345	0.4841	–	0.4428	0.4044	–	0.37
x2 = 0.7688	–	0.4819	0.4392	–	0.4048	0.3727	–	0.3423
x2 = 0.8081	–	0.4514	0.4129	–	0.3833	0.3554	–	0.3298
x2 = 0.851	–	0.4225	0.3905	–	0.3645	0.3396	–	0.3178
x2 = 0.9009	–	0.3934	0.368	–	0.3459	0.3257	–	0.3062
x2 = 0.9502	–	0.3658	0.3478	–	0.3285	–	–	–

CS(C)=O + OCCO
viscosity [mPa·s]
Settings	298.15 K	303.15 K	308.15 K	313.15 K	318.15 K	323.15 K
100 kPa, x1 = 0.105	12.96	10.76	8.98	7.61	6.51	5.63
100 kPa, x1 = 0.1987	10.61	8.91	7.45	6.39	5.54	4.82
100 kPa, x1 = 0.2971	8.58	7.31	6.14	5.32	4.51	4.09
100 kPa, x1 = 0.3911	6.94	5.97	5.09	4.45	3.86	3.48
100 kPa, x1 = 0.5099	5.28	4.59	4.03	3.56	3.02	2.84
100 kPa, x1 = 0.5932	4.45	3.93	3.46	3.07	2.72	2.48
100 kPa, x1 = 0.702	3.68	3.26	2.91	2.61	2.45	2.13
100 kPa, x1 = 0.7931	3.21	2.86	2.58	2.32	2.24	1.91
100 kPa, x1 = 0.9003	2.74	2.46	2.21	2	1.92	1.67
101 kPa, x1 = 0.0799	–	–	10.2	–	–	–
101 kPa, x1 = 0.206	–	–	9.506	–	–	–
101 kPa, x1 = 0.3426	–	–	8.715	–	–	–
101 kPa, x1 = 0.4387	–	–	8.143	–	–	–
101 kPa, x1 = 0.5397	–	–	7.399	–	–	–
101 kPa, x1 = 0.6459	–	–	6.235	–	–	–
101 kPa, x1 = 0.7517	–	–	4.953	–	–	–
101 kPa, x1 = 0.8456	–	–	3.731	–	–	–
101 kPa, x1 = 0.9271	–	–	2.599	–	–	–
101 kPa, x2 = 0.0621	2.42	2.19	1.98	1.8	1.63	1.5
101 kPa, x2 = 0.1227	3.05	2.66	2.43	2.24	2.02	1.84
101 kPa, x2 = 0.1819	4.26	3.66	3.21	2.8	2.51	2.27
101 kPa, x2 = 0.2394	5.61	4.72	4.02	3.49	3.06	2.73
101 kPa, x2 = 0.2958	7.14	5.91	4.88	4.19	3.56	3.14
101 kPa, x2 = 0.3504	8.45	7.01	5.72	4.83	4.12	–
101 kPa, x2 = 0.404	9.69	7.96	6.43	5.48	4.63	–
101 kPa, x2 = 0.4562	10.8	8.81	7.13	6.01	5.11	–
101 kPa, x2 = 0.5076	11.7	9.54	7.73	6.52	5.52	–
101 kPa, x2 = 0.5568	12.6	10.2	8.27	6.95	5.88	–
101 kPa, x2 = 0.6061	13.3	10.7	8.72	7.33	6.2	–
101 kPa, x2 = 0.6537	14	11.2	9.12	7.65	6.49	–
101 kPa, x2 = 0.7004	14.6	11.6	9.44	7.94	6.72	–
101 kPa, x2 = 0.7461	15.1	12	9.75	8.22	6.93	–
101 kPa, x2 = 0.7906	15.5	12.4	9.99	8.48	7.15	–
101 kPa, x2 = 0.8342	16	12.8	10.2	8.71	7.33	–
101 kPa, x2 = 0.8769	16.5	13.1	10.5	8.95	7.53	–
101 kPa, x2 = 0.9189	16.9	13.4	10.9	9.2	7.71	–
101 kPa, x2 = 0.9599	17.3	13.7	11.1	9.41	7.9	–
